Test results: patent US9371295B2, “Compounds for use in the treatment of disorders that are ameliorated by inhibition of HDAC” (IRBM—Science Park S.p.A., priority 2012, dated 2016)

Tests used:
K562 cells = assay: Erythroid differentiation of K562 cells by benzidine staining; assay type: cell-based, human; conditions: optimized concentration, mean ± SD of six experiments
Description: The biological activity of the compounds of the present application was evaluated by examining the capacity to modulate the expression of γ-globin genes in the human K562 cell line, which is capable of differentiating in the erythroid manner by expressing genes for γ-globin if treated with modifiers of the biological response that are suitable for the purpose (Bianchi et al, J. Haematol., 113, 4, p. 951-961, 2001). The human K562 cells were cultured in RPMI 1640 medium (Sigma, St Louis, Mo., USA) supplemented with 10% foetal bovine serum (FBS; Analitical de Mori, Milan, Italy), 100 units/mL penicillin and 100 μg/mL streptomycin. Cell growth was determined according to cell number/ml, using a cell counter (Coulter Electronics, Hialeah, Fla., USA). For experiments, K562 cell cultures were initiated at 3×10^4/mL and the chemical inducers at the indicated concentrations added. Following 3-5 days incubation without a medium change erythroid differentiation was determined by staining the cells in a solution containing 0.2% benzidine in 0.5 M glacial acetic acid, 10% H2O2. Benzidine positivity indicates the presence of intracellular Hb.
The erythroid differentiation of K562 cells was investigated following treatment with selected compounds of the invention. The effect on cell proliferation was first determined for all tested molecules by culture of K562 cells in the presence of increasing concentration of the compounds. The cell number per sample was then determined after 3, 4 and 5 days. The IC50 values reported in Table 3 for the antiproliferative effect were calculated from the concentration of the compounds necessary to decrease the cell number to 50% of the values obtained in control untreated K562 cell cultures, after a 5 days culture period. Erythroid differentiation was measured by benzidine staining after 5, 6 and 7 days of cell culture and by quantitative reverse transcriptase polymerase-chain reaction (RT-qPCR) to quantify the expression of γ-globin mRNA. Different concentrations of tested compounds were employed because of their differing antiproliferative effects; accordingly, concentrations were chosen to maximize the erythroid induction effect without extensive reduction of cell viability. In Table 3 the % of benzidine positive cells and the increase in γ-globin mRNA assayed by RT-qPCR after 6 days of culture period are reported.
Table 4 reports induction of erythroid differentiation in K562 cells treated with an optimized concentration of the compound 2 in comparison with known inducers. Compound 2 is able to stimulate an increase of the proportion of benzidine-positive (hemoglobin producing) K562 cells. This is associated with an increase of the expression of γ-globin mRNA.

[1] = test system: human γ-globin promoter (EGFP reporter) in K562 cells; assay: HbF activation assay on K562 (EGFP/RFP reporter model system for screening of inducers of fetal hemoglobin); assay type: cell-based; conditions: 60 hours
How it was run: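 K562 cells stably carrying EGFP under the human γ-globin promoter and far-red FP under the β-globin promoter, with the LCR, were seeded at 1000 cells/well. Cells were exposed to compounds (0.25% DMSO final) for 60 h at 37 °C. Fluorescence was read by plate cytometry, normalized to Hoechst nuclei count, which also indicated proliferation or death.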

HDAC1 = molecular target: T1, HDAC1 (Homo sapiens, UniProt Q13547); assay: HDAC1 assay (Fluor-de-Lys fluorescent deacetylase assay); assay type: biochemical; conditions: read-out: hHDAC IC50
T1 construct: made in house
T1 sequence (Q13547 whole entry): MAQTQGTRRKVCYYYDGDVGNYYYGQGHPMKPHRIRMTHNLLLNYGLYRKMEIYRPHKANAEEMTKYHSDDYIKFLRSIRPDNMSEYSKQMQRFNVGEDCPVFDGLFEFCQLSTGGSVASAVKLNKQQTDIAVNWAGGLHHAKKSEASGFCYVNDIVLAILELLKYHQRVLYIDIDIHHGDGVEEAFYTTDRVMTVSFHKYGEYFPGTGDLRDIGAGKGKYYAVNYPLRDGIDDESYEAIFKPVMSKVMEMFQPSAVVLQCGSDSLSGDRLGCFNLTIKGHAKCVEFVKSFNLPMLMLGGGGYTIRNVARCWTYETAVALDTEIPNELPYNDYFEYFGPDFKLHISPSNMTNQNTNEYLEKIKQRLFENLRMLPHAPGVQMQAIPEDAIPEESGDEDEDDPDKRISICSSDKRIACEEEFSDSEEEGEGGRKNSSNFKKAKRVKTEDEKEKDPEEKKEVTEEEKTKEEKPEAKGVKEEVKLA
How it was run: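 Serially diluted compounds were pre-incubated with purified FLAG-tagged HDAC1 (1-2 nM final; from transfected HeLa cells) or HeLa nuclear extract, then given the Fluor-de-Lys acetyl-lysine substrate/developer; deacetylation read as fluorescence. Reactions were stopped with TSA (3 uM final).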

HDAC in Hela cells = assay: HDAC Hela Cell Based assay

| Structure (SMILES) | Benzidine positive cells (%) (K562 cells) | EC50 [1] [nM] | IC50 (HDAC1) [nM] | IC50 (HDAC in Hela cells) [nM] |
| --- | --- | --- | --- | --- |
| CCCC(=O)O [Butyric acid, reference compound] | 32 ± 6.4 |  |  |  |
| Nc1ccn([C@@H]2O[C@H](CO)[C@@H](O)[C@@H]2O)c(=O)n1 [Cytosin arabinoside, reference compound] | 75 ± 5.4 |  |  |  |
| O=c1ccc2ccc3occc3c2o1 [Angelicin, reference compound] | 62 ± 8.5 |  |  |  |
| NC(=O)NO [Hydroxyurea, reference compound] | 30 ± 7.5 |  |  |  |
| CCC(=O)CCCCC[C@H](NC(=O)C(C)(C)N(C)C)c1ncc(-c2ccccc2)o1 [Compound 9, (S)-2-(dimethylamino)-2-methyl-N-(7-oxo-1-(5-phenyloxazol-2-yl)nonyl)propanamide] |  | > 1000 | < 100 | > 1000 |
| CCC(=O)CCCCC[C@H](NC(=O)C1CN(C)C1)c1ncc(-c2ccc(-c3ccnn3C)cc2)o1 [Compound 54, (S)-1-methyl-N-(1-(5-(4-(1-methyl-1H-pyrazol-5-yl)phenyl)oxazol-2-yl)-7-oxononyl)azetidine-3-carboxamide] |  | > 1000 | < 100 | 100 to 1000 |
| CCC(=O)CCCCC[C@H](NC(=O)C1(F)CCN(C)CC1)c1ncc(-c2cc3ccccc3nc2OC)o1 [Compound 68, (S)-4-fluoro-N-(1-(5-(2-methoxyquinolin-3-yl)oxazol-2-yl)-7-oxononyl)-1-methylpiperidine-4-carboxamide] |  | > 1000 | < 100 | 100 to 1000 |
| CCC(=O)CCCCC[C@H](NC(=O)Cc1ncccn1)c1ncc(-c2cc3ccccc3nc2OC)o1 [Compound 79, (S)-N-(1-(5-(2-methoxyquinolin-3-yl)oxazol-2-yl)-7-oxononyl)-2-(pyrimidin-2-yl)acetamide] |  | > 1000 | < 100 | 100 to 1000 |
| CCC(=O)CCCCC[C@H](NC(=O)C1CN(C)C1)c1ncc(-c2cccc3cccnc23)o1 [Compound 70, (S)-1-methyl-N-(7-oxo-1-(5-(quinolin-8-yl)oxazol-2-yl)nonyl)azetidine-3-carboxamide] |  | > 1000 | < 100 | 100 to 1000 |
| CCC(=O)CCCCC[C@H](NC(=O)CCC1CCCN(C)C1)c1ncc(-c2ccccc2)o1 (stereo partly drawn) [Compound 25, 3-(1-methylpiperidin-3-yl)-N-((S)-7-oxo-1-(5-phenyloxazol-2-yl)nonyl)propanamide] |  | > 1000 | 100 to 1000 | > 1000 |
| CCC(=O)CCCCC[C@H](NC(=O)Cc1c[nH]cn1)c1ncc(-c2cc3ccccc3nc2OC)o1 [Compound 73, (S)-2-(1H-imidazol-4-yl)-N-(1-(5-(2-methoxyquinolin-3-yl)oxazol-2-yl)-7-oxononyl)acetamide] |  | > 1000 | < 100 | 100 to 1000 |
| CCC(=O)CCCCC[C@H](NC(=O)c1cncs1)c1ncc(-c2cc3ccccc3nc2OC)o1 [Compound 40, (S)-N-(1-(5-(2-methoxyquinolin-3-yl)oxazol-2-yl)-7-oxononyl)thiazole-5-carboxamide] |  | > 1000 | < 100 | < 100 |
| CCC(=O)CCCCC[C@H](NC(=O)C1CCN(C)CC1)c1ncc(-c2cc3ccccc3nc2OC)o1 [Compound 39] |  | 100 to 1000 | < 100 | < 100 |
| CCC(=O)CCCCC[C@H](NC(=O)C1CN(C)C1)c1nnc(-c2cc3ccccc3n(C)c2=O)o1 [Compound 71, (S)-1-methyl-N-(1-(5-(1-methyl-2-oxo-1,2-dihydroquinolin-3-yl)-1,3,4-oxadiazol-2-yl)-7-oxononyl)azetidine-3-carboxamide] |  | > 1000 | < 100 | 100 to 1000 |
| CCC(=O)CCCCC[C@H](NC(=O)CCN(C)C)c1ncc(-c2cc3ccccc3nc2OC)o1 [Compound 38, (S)-3-(dimethylamino)-N-(1-(5-(2-methoxyquinolin-3-yl)oxazol-2-yl)-7-oxononyl)propanamide] |  | 100 to 1000 | < 100 | < 100 |
| CCC(=O)CCCCC[C@H](NC(=O)C(=O)N1CCOCC1)c1ncc(-c2cc3ccccc3nc2OC)o1 [Compound 69, (S)-N-(1-(5-(2-methoxyquinolin-3-yl)oxazol-2-yl)-7-oxononyl)-2-morpholino-2-oxoacetamide] |  | > 1000 | < 100 | 100 to 1000 |
| CCC(=O)CCCCC[C@H](NC(=O)CCc1cnn(C)c1)c1ncc(-c2cc3ccccc3nc2OC)o1 [Compound 93, (S)-N-(1-(5-(2-methoxyquinolin-3-yl)oxazol-2-yl)-7-oxononyl)-3-(1-methyl-1H-pyrazol-4-yl)propanamide] |  | 100 to 1000 | < 100 | 100 to 1000 |
| CCC(=O)CCCCC[C@H](NC(=O)Cn1ccc(C)n1)c1ncc(-c2cc3ccccc3nc2OC)o1 [Compound 78, (S)-N-(1-(5-(2-methoxyquinolin-3-yl)oxazol-2-yl)-7-oxononyl)-2-(3-methyl-1H-pyrazol-1-yl)acetamide] |  | > 1000 | < 100 | 100 to 1000 |
| Oc1ccc(C=Cc2cc(O)cc(O)c2)cc1 [Resveratrol, reference compound] | 70 ± 8.5 |  |  |  |
| CCC(=O)CCCCC[C@H](NC(=O)c1nnc(C)o1)c1ncc(-c2cc3ccccc3nc2OC)o1 [Compound 90, (S)-N-(1-(5-(2-methoxyquinolin-3-yl)oxazol-2-yl)-7-oxononyl)-5-methyl-1,3,4-oxadiazole-2-carboxamide] |  | > 1000 | < 100 | 100 to 1000 |
| CCC(=O)CCCCC[C@H](NC(=O)C1CN(C)C1)c1ncc(-c2ccc(-c3ccc(OC)nc3)cc2)o1 [Compound 65, (S)-N-(1-(5-(4-(6-methoxypyridin-3-yl)phenyl)oxazol-2-yl)-7-oxononyl)-1-methylazetidine-3-carboxamide] |  | > 1000 | < 100 | 100 to 1000 |
| N.N.[Cl][Pt][Cl] [Cisplatin, reference compound] | 63 ± 8.5 |  |  |  |
| CCC(=O)CCCCC[C@H](NC(=O)CCn1ccnc1)c1ncc(-c2cc3ccccc3nc2OC)o1 [Compound 75, (S)-3-(1H-imidazol-1-yl)-N-(1-(5-(2-methoxyquinolin-3-yl)oxazol-2-yl)-7-oxononyl)propanamide] |  | 100 to 1000 | < 100 | 100 to 1000 |
| CCC(=O)CCCCC[C@H](NC(=O)C1CN(C)C1)c1ncc(-c2ccc(-n3cccn3)cc2)o1 [Compound 61, (S)-N-(1-(5-(4-(1H-pyrazol-1-yl)phenyl)oxazol-2-yl)-7-oxononyl)-1-methylazetidine-3-carboxamide] |  | > 1000 | < 100 | 100 to 1000 |
| CCC(=O)CCCCC[C@H](NC(=O)c1cc(CN2CCCCC2)ns1)c1ncc(-c2cc3ccccc3nc2OC)o1 [Compound 94, (S)-N-(1-(5-(2-methoxyquinolin-3-yl)oxazol-2-yl)-7-oxononyl)-3-(piperidin-1-ylmethyl)isothiazole-5-carboxamide] |  | > 1000 | < 100 | 100 to 1000 |
